Experimental data taken from patent publication US11633457B2, “Pharmaceutical compositions comprising oncostatin m (OSM) antagonist derivatives and methods of use” (Boise State University, priority 2019, dated 2023).

How the values were obtained:
[1] = system: prostate tumor cell; conditions: earlier work (U.S. Ser. No. 15/403,965); cited from earlier work
[2] = system: STAT3, JNK, ERK, and AKT; conditions: earlier work (U.S. Ser. No. 15/403,965); cited from earlier work
[3] = system: OSM induced secretion of IL-6; assay: ELISA of OSM induced IL-6 secretion; format: cell-based; conditions: pretreatment with inhibitor; FIG. 5
Procedure: (§1) OSM-SMI-10B was also assayed for its effect on OSM induced secretions of both VEGF and IL-6 by ELISA (FIG. 5).

[4] = system: OSM-induced phosphorylation of STAT3 on Tyr-705 (pSTAT3); assay: ELISA of OSM-induced phosphorylation of STAT3 (pSTAT3) with inhibitor pretreatment; format: cell-based, human; conditions: for reduction in OSM induced phosphorylation of STAT3 (pSTAT3): 10, 50, and 100 μM per the method of Example 1, FIGS. 4A and 4B; for effect on OSM induced pSTAT3 phosphorylation, initial tests: OSM with or without inhibitor pretreatment, FIG. 3; for reduction of the OSM induced increase in pSTAT3 expression: initial testing, FIG. 6
Procedure: Therefore, the phosphyloration of various signaling pathways was assayed using an ELISA both with and without inhibitors and at various concentrations.
All human breast carcinoma cell lines used in this aim were purchased from the American Type Culture Collection (ATCC) or Caliper Life Sciences, and the growth of frozen cell aliquots will be initiated on a periodic basis to remove the possibility of cross-cell contamination. The cell lines were regularly tested for mycoplasma contamination by both DAPI staining and PCR. Four invasive ductal carcinoma cell lines, T47D, MCF7, MDA-MB-231 and MDA-MB-468, were used. These include the less aggressive, estrogen receptor-positive (ER+), progesterone receptor positive (PR+), HER2−, luminal T47D and MCF7-luc cell lines, as well as the triple negative breast cancer (TNBC) basal-like cell line, MDA-MB-231-LN-luc, that is metastatic in orthotopic xenografts and the less metastatic TNBC cell line MDA-MB-468. All cell lines express OSMRb, LIFRb, and gp130, as well as various levels of OSM, by RT-PCR
An enzyme-linked immunosorbent assay (ELISA) was used for analyzing initial OSM-induced phosphorylation of STAT3 on Tyr-705 (pSTAT3). T47D, MCF7, and MDA-MB-231 human breast cancer cells induced pSTAT3 upon stimulation with OSM (25 ng/ml) for 30 minutes. OSM-SMI-8 modified inhibitors were used to pretreat the cells in order to assay their ability to inhibit OSM-OSMR interactions. Pretreatment consisted of administering to the cells either 5, 10, 50, or 100 μM of the modified OSM-SMI-8 based inhibitor for 2 hours prior to administration of OSM.

[5] = system: OSM induced secretion of VEGF; assay: ELISA of OSM induced VEGF secretion; format: cell-based; conditions: pretreatment with inhibitor; FIG. 5
Procedure: as §1

| SMILES | reduction in OSM induced phosphorylation of STAT3 (pSTAT3) [4] | effect on OSM induced pSTAT3 phosphorylation, initial tests [4] | other results |
| --- | --- | --- | --- |
| O=C(O)/C(=C\C=C\c1ccccc1)c1coc(-c2nc(/C(=C/C=C/c3ccccc3)C(=O)O)co2)n1 [OSM-SMI-8] | – | – | inhibition of OSM induced prostate tumor cell detachment [1]: shown to inhibit; inhibition of OSM induced phosphorylation of STAT3, JNK, ERK, and AKT [2]: shown to inhibit |
| O=C(O)/C=C/c1cc(-c2ccc3c(c2)OCO3)c(-c2ccc3c(c2)OCO3)o1 [OSM-SMI-10B] | significant reduction in pSTAT3 at every treatment level | inhibitory effect | reduction in the OSM induction of IL-6 secretion [3]: large reduction; reduction in the OSM induction of VEGF secretion [5]: large reduction |
| O=C(/C=C/c1cc(-c2ccc3c(c2)OCO3)c(-c2ccc3c(c2)OCO3)o1)c1ccccc1 [OSM-SMI-10C] | significant reduction in pSTAT3 at every treatment level | inhibitory effect | – |
| CCOC(=O)/C=C/c1cc(-c2ccc3c(c2)OCO3)c(-c2ccc3c(c2)OCO3)o1 [OSM-SMI-10D] | – | inhibitory effect | – |
| C(=N\Nc1ccccc1)/c1cc(-c2ccc3c(c2)OCO3)c(-c2ccc3c(c2)OCO3)o1 [OSM-SMI-10E] | significant reduction in pSTAT3 at every treatment level | inhibitory effect | – |
| O=C(NCc1ccccc1)c1cc(-c2ccc3c(c2)OCO3)c(-c2ccc3c(c2)OCO3)o1 [OSM-SMI-10J] | – | inhibitory effect | – |
| O=[N+]([O-])c1c(/C=N/Nc2ccccc2)oc(-c2ccc3c(c2)OCO3)c1-c1ccc2c(c1)OCO2 [OSM-SMI-10] | – | – | inhibition of OSM induced prostate tumor cell detachment [1]: shown to inhibit; inhibition of OSM induced phosphorylation of STAT3, JNK, ERK, and AKT [2]: shown to inhibit |
| O=C(/C=C/c1ccccc1)c1cccc(N2C(=O)c3ccc(Oc4ccc5c(c4)C(=O)N(c4cccc(C(=O)/C=C/c6ccccc6)c4)C5=O)cc3C2=O)c1 [OSM-SMI-23] | – | – | reduction of the OSM induced increase in pSTAT3 expression [4]: more than about half |
| Cc1ccc(-c2cc(C(=O)Nc3cccc(C(=O)O)c3)c3cc(Br)ccc3n2)cc1C [OSM-SMI-26] | – | – | reduction of the OSM induced increase in pSTAT3 expression [4]: more than about half |
